Source: EP2818472A1, “Imidazo[4,5-c]pyridine and pyrrolo[3,2-c]pyridine compounds as G-protein-coupled receptor kinase 5 (GRK5) modulators” (Max-Planck-Gesellschaft zur Förderung der Wissenschaften …, priority 2013, dated 2014)

What follows are compounds tested on beta-TC6 cells (assay: Insulin HTRF assay (relative activity Ar) in beta-TC6 cells). Conditions: Mus musculus, Beta-TC6, 4 h, insulin HTRF, supernatant of beta-TC6 cells, incubation with test compound at 37°C for 2, 3, 4h; read-out: Ar (relative activity).
Type: cell-based, mouse
Method in brief: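 beta-TC6 cells (15k/well, seeded 24 or 48 h) washed, then exposed to compound in induction buffer (0.5% DMSO final) for 2, 3 or 4 h at 37°C.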
Cn1c(-c2cccnc2)cc2cnc(Nc3ccc4c(c3)OCO4)cc21 [Compound 93, N-(1,3-benzodioxol-5-yl)-1-methyl-2-(3-pyridyl)pyrrolo[3,2-c]pyridin-6-amine] showed an Emax of 50 to 100%.
In the case of Cn1c(-c2cccnc2)cc2cnc(N3CCOCC3)cc21 [Compound 94, 4-[1-methyl-2-(3-pyridyl)pyrrolo[3,2-c]pyridin-6-yl]morpholine], the Emax is reported as 30 to 50%.
CN(C)C(=O)c1ccc(Nc2cc3c(cn2)cc(-c2cccnc2)n3C)cc1 [Compound 95, N,N-dimethyl-4-[[1-methyl-2-(3-pyridyl)pyrrolo[3,2-c]pyridin-6-yl]amino]benzamide] showed an Emax of 50 to 100%.
With CC(=O)Nc1cccc(Nc2cc3c(cn2)cc(-c2cccnc2)n3C)c1 [Compound 96, N-[3-[[1-methyl-2-(3-pyridyl)pyrrolo[3,2-c]pyridin-6-yl]amino]phenyl]acetamide] the Emax was 50 to 100%.
For CC(=O)c1cccc(Nc2cc3c(cn2)cc(-c2cccnc2)n3C)c1 [Compound 97, 1-[3-[[1-methyl-2-(3-pyridyl)pyrrolo[3,2-c]pyridin-6-yl]amino]phenyl]ethanone], the Emax was 30 to 50%.
For c1ccc(Cn2c(-c3cccnc3)cc3cnc(Nc4ccccn4)cc32)cc1 [Compound 98, 1-benzyl-N-(2-pyridyl)-2-(3-pyridyl)pyrrolo[3,2-c]pyridin-6-amine], the Emax was 30 to 50%.
Work on c1ccc(Cn2c(-c3cccnc3)cc3cnc(Nc4ccncn4)cc32)cc1 [Compound 99, 1-benzyl-2-(3-pyridyl)-N-pyrimidin-4-yl-pyrrolo[3,2-c]pyridin-6-amine] yielded an Emax of 30 to 50%.
COc1cc(Nc2cc3[nH]c(-c4cncn4C)cc3cn2)cc(OC)c1OC [Compound 100, 2-(3-methylimidazol-4-yl)-N-(3,4,5-trimethoxyphenyl)-1H-pyrrolo[3,2-c]pyridin-6-amine] was tested, and the Emax was greater than 100%.
Work on COc1cccc(Nc2cc3[nH]c(-c4cncn4C)cc3cn2)c1 [Compound 101, N-(3-methoxyphenyl)-2-(3-methylimidazol-4-yl)-1H-pyrrolo[3,2-c]pyridin-6-amine] yielded an Emax of 50 to 100%.
For COc1ccc(Nc2cc3[nH]c(-c4cncn4C)cc3cn2)cc1OC [Compound 102, N-(3,4-dimethoxyphenyl)-2-(3-methylimidazol-4-yl)-1H-pyrrolo[3,2-c]pyridin-6-amine], the Emax was greater than 100%.
Cn1cncc1-c1cc2cnc(Nc3cccc(Cl)c3)cc2[nH]1 [Compound 103, N-(3-chlorophenyl)-2-(3-methylimidazol-4-yl)-1H-pyrrolo[3,2-c]pyridin-6-amine] showed an Emax of 30 to 50%.
For CN(C)c1cccc(Nc2cc3[nH]c(-c4cncn4C)cc3cn2)c1 [Compound 104, N1,N1-dimethyl-N3-[2-(3-methylimidazol-4-yl)-1H-pyrrolo[3,2-c]pyridin-6-yl]benzene-1,3-diamine], the Emax was 50 to 100%.
Work on Cc1cccc(Nc2cc3[nH]c(-c4cncn4C)cc3cn2)c1 [Compound 105, 2-(3-methylimidazol-4-yl)-N-(m-tolyl)-1H-pyrrolo[3,2-c]pyridin-6-amine] yielded an Emax of 50 to 100%.
Cn1cncc1-c1cc2cnc(Nc3ccc(F)cc3)cc2[nH]1 [Compound 106, N-(4-fluorophenyl)-2-(3-methylimidazol-4-yl)-1H-pyrrolo[3,2-c]pyridin-6-amine] was tested, and the Emax was 50 to 100%.
CC(=O)c1cccc(Nc2cc3[nH]c(-c4cncn4C)cc3cn2)c1 [Compound 107, 1-[3-[[2-(3-methylimidazol-4-yl)-1H-pyrrolo[3,2-c]pyridin-6-yl]amino]phenyl]ethanone] gave an Emax of 50 to 100%.
For Cn1cncc1-c1cc2cnc(Nc3cccc(F)c3)cc2[nH]1 [Compound 108, N-(3-fluorophenyl)-2-(3-methylimidazol-4-yl)-1H-pyrrolo[3,2-c]pyridin-6-amine], the Emax was 50 to 100%.
With CC(C)Oc1ccc(Nc2cc3[nH]c(-c4cncn4C)cc3cn2)cc1 [Compound 109, N-(4-isopropoxyphenyl)-2-(3-methylimidazol-4-yl)-1H-pyrrolo[3,2-c]pyridin-6-amine] the Emax was 50 to 100%.
COc1cccc(Nc2cc3[nH]c(-c4cn[nH]c4)cc3cn2)c1 [Compound 110, N-(3-methoxyphenyl)-2-(1H-pyrazol-4-yl)-1H-pyrrolo[3,2-c]pyridin-6-amine] gave an Emax greater than 100%.
Compound COc1ccc(Nc2cc3[nH]c(-c4cn[nH]c4)cc3cn2)cc1OC [Compound 111, N-(3,4-dimethoxyphenyl)-2-(1H-pyrazol-4-yl)-1H-pyrrolo[3,2-c]pyridin-6-amine] has an Emax greater than 100%.
CN(C)c1cccc(Nc2cc3[nH]c(-c4cn[nH]c4)cc3cn2)c1 [Compound 112, N1,N1-dimethyl-N3-[2-(1H-pyrazol-4-yl)-1H-pyrrolo[3,2-c]pyridin-6-yl]benzene-1,3-diamine] showed an Emax of 50 to 100%.
In the case of Cc1cccc(Nc2cc3[nH]c(-c4cn[nH]c4)cc3cn2)c1 [Compound 113, N-(m-tolyl)-2-(1H-pyrazol-4-yl)-1H-pyrrolo[3,2-c]pyridin-6-amine], the Emax is reported as 50 to 100%.
Compound Fc1ccc(Nc2cc3[nH]c(-c4cn[nH]c4)cc3cn2)cc1 [Compound 114, N-(4-fluorophenyl)-2-(1H-pyrazol-4-yl)-1H-pyrrolo[3,2-c]pyridin-6-amine] has an Emax of 50 to 100%.
Work on c1ccc(Nc2cc3[nH]c(-c4cn[nH]c4)cc3cn2)nc1 [Compound 115, 2-(1H-pyrazol-4-yl)-N-(2-pyridyl)-1H-pyrrolo[3,2-c]pyridin-6-amine] yielded an Emax greater than 100%.
COc1cc(Nc2cc3[nH]c(-c4cn[nH]c4)cc3cn2)cc(C(F)(F)F)c1 [Compound 116, N-[3-methoxy-5-(trifluoromethyl)phenyl]-2-(1H-pyrazol-4-yl)-1H-pyrrolo[3,2-c]pyridin-6-amine] gave an Emax of 0 to 30%.
Compound CC(=O)Nc1cccc(Nc2cc3[nH]c(-c4cn[nH]c4)cc3cn2)c1 [Compound 117, N-[3-[[2-(1H-pyrazol-4-yl)-1H-pyrrolo[3,2-c]pyridin-6-yl]amino]phenyl]acetamide] has an Emax greater than 100%.
With CC(=O)c1cccc(Nc2cc3[nH]c(-c4cn[nH]c4)cc3cn2)c1 [Compound 118, 1-[3-[[2-(1 H-pyrazol-4-yl)-1H-pyrrolo[3,2-c]pyridin-6-yl]amino]phenyl]ethanone] the Emax was greater than 100%.
Fc1cccc(Nc2cc3[nH]c(-c4cn[nH]c4)cc3cn2)c1 [Compound 119, N-(3-fluorophenyl)-2-(1H-pyrazol-4-yl)-1H-pyrrolo[3,2-c]pyridin-6-amine] showed an Emax of 50 to 100%.
With CS(=O)(=O)c1ccc(Nc2cc3[nH]c(-c4cn[nH]c4)cc3cn2)cc1 [Compound 120, N-(4-methylsulfonylphenyl)-2-(1H-pyrazol-4-yl)-1H-pyrrolo[3,2-c]pyridin-6-amine] the Emax was greater than 100%.
CC(=O)Nc1ccc(Nc2cc3[nH]c(-c4cnn(C)c4)cc3cn2)cc1 [Compound 121, N-[4-[[2-(1-methylpyrazol-4-yl)-1H-pyrrolo[3,2-c]pyridin-6-yl]amino]phenyl]acetamide] was tested, and the Emax was greater than 100%.
Cn1cc(-c2cc3cnc(Nc4ccc5c(c4)OCCO5)cc3[nH]2)cn1 [Compound 122, N-(2,3-dihydro-1,4-benzodioxin-6-yl)-2-(1-methylpyrazol-4-yl)-1H-pyrrolo[3,2-c]pyridin-6-amine] showed an Emax of 30 to 50%.
In the case of COc1ccc(Nc2cc3[nH]c(-c4cnn(C)c4)cc3cn2)cc1OC [Compound 123, N-(3,4-dimethoxyphenyl)-2-(1-methylpyrazol-4-yl)-1H-pyrrolo[3,2-c]pyridin-6-amine], the Emax is reported as greater than 100%.
Compound CC(=O)c1cccc(Nc2cc3[nH]c(-c4cnn(C)c4)cc3cn2)c1 [Compound 124, 1-[3-[[2-(1-methylpyrazol-4-yl)-1H-pyrrolo[3,2-c]pyridin-6-yl]amino]phenyl]ethanone] has an Emax greater than 100%.
With COc1cc(Nc2cc3c(cn2)cc(-c2cnn(C)c2)n3C)cc(OC)c1OC [Compound 125, 1-methyl-2-(1-methylpyrazol-4-yl)-N-(3,4,5-trimethoxyphenyl)pyrrolo[3,2-c]pyridin-6-amine] the Emax was greater than 100%.
With CC(=O)Nc1ccc(Nc2cc3c(cn2)cc(-c2cnn(C)c2)n3C)cc1 [Compound 126, N-[4-[[1-methyl-2-(1-methylpyrazol-4-yl)pyrrolo[3,2-c]pyridin-6-yl]amino]phenyl]acetamide] the Emax was 50 to 100%.
COc1cccc(Nc2cc3c(cn2)cc(-c2cnn(C)c2)n3C)c1 [Compound 127, N-(3-methoxyphenyl)-1-methyl-2-(1-methylpyrazol-4-yl)pyrrolo[3,2-c]pyridin-6-amine] gave an Emax of 50 to 100%.
Compound Cn1cc(-c2cc3cnc(Nc4ccc5c(c4)OCCO5)cc3n2C)cn1 [Compound 128, N-(2,3-dihydro-1,4-benzodioxin-6-yl)-1-methyl-2-(1-methylpyrazol-4-yl)pyrrolo[3,2-c]pyridin-6-amine] has an Emax of 50 to 100%.
With COc1ccc(Nc2cc3c(cn2)cc(-c2cnn(C)c2)n3C)cc1OC [Compound 129, N-(3,4-dimethoxyphenyl)-1-methyl-2-(1-methylpyrazol-4-yl)pyrrolo[3,2-c]pyridin-6-amine] the Emax was greater than 100%.
Work on COc1ccc(Nc2cc3c(cn2)cc(-c2cnn(C)c2)n3C)cn1 [Compound 130, N-(6-methoxy-3-pyridyl)-1-methyl-2-(1-methylpyrazol-4-yl)pyrrolo[3,2-c]pyridin-6-amine] yielded an Emax greater than 100%.
Cn1cc(-c2cc3cnc(Nc4cccnc4)cc3n2C)cn1 [Compound 131, 1-methyl-2-(1-methylpyrazol-4-yl)-N-(3-pyridyl)pyrrolo[3,2-c]pyridin-6-amine] showed an Emax greater than 100%.
In the case of Cn1cc(-c2cc3cnc(Nc4ccccc4)cc3n2C)cn1 [Compound 132, 1-methyl-2-(1-methylpyrazol-4-yl)-N-phenyl-pyrrolo[3,2-c]pyridin-6-amine], the Emax is reported as 50 to 100%.
Compound CN1CCN(c2ccc(Nc3cc4c(cn3)cc(-c3cnn(C)c3)n4C)cc2)CC1 [Compound 133, 1-methyl-N-[4-(4-methylpiperazin-1-yl)phenyl]-2-(1-methylpyrazol-4-yl)pyrrolo[3,2-c]pyridin-6-amine] has an Emax of 50 to 100%.
With CN(C)c1cccc(Nc2cc3c(cn2)cc(-c2cnn(C)c2)n3C)c1 [Compound 134, N1,N1-dimethyl-N3-[1-methyl-2-(1-methylpyrazol-4-yl)pyrrolo[3,2-c]pyridin-6-yl]benzene-1,3-diamine] the Emax was 50 to 100%.
